Measured values from patent US20100104565A1, “COMBINATIONS COMPRISING DMXAA FOR THE TREATMENT OF CANCER” (ANTISOMA RESEARCH LIMITED, priority 2005, published 2010).
Like-named read-outs stand apart in the source and are kept apart here.

Legend:
[1] = system: A549 (lung carcinoma) xenografts; experiment: A549 human lung carcinoma xenograft study in nude athymic mice; format: in vivo
Description: Xenografts for human lung cancer are set-up in groups of nude, athymic mice. The cell line selected was A549 (ATCC number CCL-185), a lung carcinoma.

human tumours = conditions: phase I monotherapy, cited from earlier work
[2] = with thalidomide, cited from earlier work
[3] = system: glucoronidation and 6-methylhydroxylation of DMXAA in human liver microsomes; conditions: diclofenac 100 μM; cited from earlier work
[4] = system: glucoronidation and 6-methylhydroxylation of DMXAA in mouse liver microsomes; conditions: diclofenac 100 μM; cited from earlier work
[5] = diclofenac 100 mg/kg i.p., cited from earlier work

Cc1ccc2c(=O)c3cccc(CC(=O)O)c3oc2c1C [DMXAA, 5,6-dimethylxanthenone-4-acetic acid]
Drug deaths ([1]; A549 xenografts, DMXAA 21 mg/kg, Erbitux 33 mg/kg by injection, deaths/mice per group): 2/10
Response CR ([1]; Complete Response (cure; undetectable tumour over two weeks), Table 2): 0
Response PD ([1]; Progressive Disease (≧50% increase in tumour size), Table 2): 2/10
Response SD ([1]; Stable Disease (does not satisfy criteria for PR or PD), Table 2): 16
Tumour Growth Delay ([1]; difference in days for treated versus control tumours to quadruple in volume): 16 days
TTP ([1]; median time to disease progression): 16 days
Regression Duration ([1]; number of days that tumour volume is less than the original treatment volume): 0 days
Median VQT (Range; days) ([1]; tumour volume quadrupling time, A549 xenografts): 48 days
tumour blood flow (dynamic MRI) (human tumours; well-tolerated doses): significant reduction in tumour blood flow
tumour responses (human tumours): very few tumour responses

O=C1CCC(N2C(=O)c3ccccc3C2=O)C(=O)N1 (stereo not drawn) [Thalidomide, thalidomide]
increase of the AUC of DMXAA ([2]; liver): 1.8 times
increase of the AUC of DMXAA ([2]; plasma): 1.8 times
increase of the AUC of DMXAA ([2]; spleen): 1.8 times
increase of the AUC of DMXAA ([2]; tumour): three times

O=C(O)Cc1ccccc1Nc1c(Cl)cccc1Cl [diclofenac]
inhibition of 6-methylhydroxylation of DMXAA [3]: > 54%
inhibition of glucoronidation of DMXAA [3]: > 70%
inhibition of 6-methylhydroxylation of DMXAA [4]: > 54%
inhibition of glucoronidation of DMXAA [4]: > 70%
increase in the plasma DMXAA AUC ([5]; female mice): 31%
increase in DMXAA T1/2 ([5]; male and female mice, P<0.05): threefold increase
increase in the plasma DMXAA AUC ([5]; male mice): 24%
